Target: T1, cloned human dopamine D3 receptors (Homo sapiens, UniProt P35462)
T1 construct: expressed in transfected cells; membrane homogenate
Experiment: [N-Methyl-3H]Spiroperidol binding to cloned human dopamine D3 receptors
Conditions: read-out: D3 Ki
In short: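 Radioligand displacement with [N-methyl-3H]spiroperidol was run on membranes from a high-expressing CHO clone carrying human D3. Membranes were prepared in 10% DMSO and stored at −80° C.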

T1 sequence (P35462 whole entry): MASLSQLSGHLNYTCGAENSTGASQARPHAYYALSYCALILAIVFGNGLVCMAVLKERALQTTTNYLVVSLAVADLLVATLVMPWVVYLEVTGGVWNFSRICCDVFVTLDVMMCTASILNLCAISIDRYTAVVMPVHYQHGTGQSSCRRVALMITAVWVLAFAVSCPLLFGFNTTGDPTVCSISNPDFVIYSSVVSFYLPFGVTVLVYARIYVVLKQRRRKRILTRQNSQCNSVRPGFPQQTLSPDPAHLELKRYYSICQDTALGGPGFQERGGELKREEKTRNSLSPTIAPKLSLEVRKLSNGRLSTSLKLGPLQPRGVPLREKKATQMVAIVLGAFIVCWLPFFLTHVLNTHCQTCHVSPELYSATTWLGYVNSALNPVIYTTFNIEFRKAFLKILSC

Structure (SMILES): O=C(NCCCN1CCCCC1)[C@@H]1C[C@H]1CN1CCN(c2csc3cc(C(F)(F)F)ccc23)CC1 [compound 831491]
- Ki: 0.187 nM

Structure (SMILES): O=C(NC1CCN(c2ncccc2C(F)(F)F)C1)C1CC1CN1CCC(c2noc3ccsc23)CC1 (racemic) [compound 832199]
- Ki: 18.7 nM

Structure (SMILES): O=C([C@@H]1C[C@H]1CN1CCC(c2noc3ccsc23)CC1)N1CCN(c2ccccn2)CC1 [compound 830252]
- Ki: 110 nM

Structure (SMILES): O=C(NCCSc1ccc(Cl)cc1)[C@@H]1C[C@H]1CN1CCN(c2csc3cc(C(F)(F)F)ccc23)CC1 [compound 832497]
- Ki: 38 nM

Structure (SMILES): C[C@H]1CC[C@H](NC(=O)[C@@H]2C[C@H]2CN2CCC(c3nn(-c4ccccc4)c4ccsc34)CC2)CC1 [compound 833909]
- Ki: 1.86 nM

Structure (SMILES): CC1CCC(NC(=O)C2CC2CN2CCC(Cc3ccccc3)CC2)CC1 (racemic) [compound 827209]
- Ki: 30.4 nM

Structure (SMILES): O=C([C@@H]1C[C@H]1CN1CCC(c2noc3ccc(C(F)(F)F)cc23)CC1)N1CCCC(Cn2ccnc2)C1 (mixture of isomers) [A002200835]
- Ki: 0.4 nM

Structure (SMILES): O=C(NC1CCN(Cc2cc(Cl)cc(Cl)c2)CC1)C1CC1CN1CCC(c2noc3ccsc23)CC1 (racemic) [compound 831819]
- Ki: 0.1 nM

Structure (SMILES): CN1CCN(CCCNC(=O)[C@@H]2C[C@H]2CN2CCN(c3csc4cc(C(F)(F)F)ccc34)CC2)CC1 [compound 832579]
- Ki: 6.29 nM

Structure (SMILES): O=C(NCCS(=O)(=O)c1ccccc1)C1CC1CN1CCC(c2noc3ccsc23)CC1 (racemic) [compound 831736]
- Ki: 291 nM

Structure (SMILES): Cc1ccc2c(c1)c(C1CCN(C[C@@H]3C[C@H]3C(=O)NC3C4CCC3CN(C)C4)CC1)nn2C (some centres unmarked) [A002328940]
- Ki: 26.8 nM

Structure (SMILES): COc1ccccc1CCNC(=O)C1CC1CN1CCC(c2noc3ccsc23)CC1 (racemic) [compound 831805]
- Ki: 10.2 nM

Structure (SMILES): O=C(NCCc1cccnc1)C1CC1CN1CCC(c2noc3ccsc23)CC1 (racemic) [compound 831456]
- Ki: 6.21 nM

Structure (SMILES): COc1cccc2c(C3CCN(C[C@@H]4C[C@H]4C(=O)NC4CC5CC(C4C)C5(C)C)CC3)nn(C)c12 (some centres unmarked) [compound 834171]
- Ki: 65.2 nM

Structure (SMILES): O=C(NC1CCN(C(=O)c2ccc(Cl)c(Cl)c2)CC1)C1CC1CN1CCC(c2noc3ccsc23)CC1 (racemic) [compound 832464]
- Ki: 12.8 nM

Structure (SMILES): O=C(NC1CC1)[C@@H]1C[C@H]1CN1CCC(c2noc3ccsc23)CC1 [compound 829460]
- Ki: 158 nM

Structure (SMILES): CC(=O)N1CCC(CNC(=O)[C@@H]2C[C@H]2CN2CCN(c3csc4cc(C(F)(F)F)ccc34)CC2)CC1 [compound 833065]
- Ki: 692 nM

Structure (SMILES): C=CCN1CCN(C(=O)[C@@H]2C[C@H]2CN2CCN(c3csc4cc(C(F)(F)F)ccc34)CC2)CC1 [compound 832834]
- Ki: 12.2 nM

Structure (SMILES): O=C(NCCCn1ccnc1)[C@@H]1C[C@H]1CN1CCC(c2nn(CC(F)(F)F)c3ccsc23)CC1 [A002287767, 2R-{4-[1-(2,2,20Trifluoro-ethyl)-1H-thieno[3,2-c]pyrazol-3-yl)-piperidin-1-ylmethyl]-1R-cycloproanecarboxylic acid (3-imidazol-1-yl-propyl)-amide]
- Ki: 3.3 nM

Structure (SMILES): O=C([C@@H]1C[C@H]1CN1CCC(c2nsc3cc(Br)ccc23)CC1)N1CCC(Cn2ccnc2)CC1 [A002329098]
- Ki: 345 nM

Structure (SMILES): Cc1ccc(CN2CCC(NC(=O)C3CC3CN3CCC(c4noc5ccsc45)CC3)CC2)cc1 (racemic) [compound 831992]
- Ki: 4.81 nM

Structure (SMILES): CC(C)(C)OC(=O)N1CCC(CNC(=O)[C@@H]2C[C@H]2CN2CCC(c3nn(CC(F)(F)F)c4ccsc34)CC2)CC1 [A002439266]
- Ki: 66 nM

Structure (SMILES): O=C(C1CC1CN1CCC(c2noc3ccsc23)CC1)N1CCN(S(=O)(=O)c2ccc(-c3ccccc3)cc2)CC1 (racemic) [compound 831836]
- Ki: 94.3 nM

Structure (SMILES): C[C@H]1CC[C@H](N2CC(CN3CCN(c4noc5ccsc45)CC3)CC2=O)CC1 (some centres unmarked) [832831DA]
- Ki: 1150 nM

Structure (SMILES): O=C(NC1CC2CCC1C2)C1CC1CN1CCC(c2noc3ccsc23)CC1 (racemic) [compound 827395]
- Ki: 31.4 nM

Structure (SMILES): O=C(NNC(=O)C1CC1CN1CCC(c2noc3ccsc23)CC1)c1ccc(Cl)cc1 (racemic) [compound 831812]
- Ki: 453 nM

Structure (SMILES): O=C([C@@H]1C[C@H]1CN1CCN(c2csc3cc(C(F)(F)F)ccc23)CC1)N1CCCC(CN2CCCCC2)C1 (mixture of isomers) [A002437357]
- Ki: 14 nM

Structure (SMILES): O=C(NC1CCN(Cc2ccc(C(F)(F)F)cc2)CC1)[C@@H]1C[C@H]1CN1CCC(c2noc3ccsc23)CC1 [compound 833160]
- Ki: 2.09 nM

Structure (SMILES): O=C(C1CC1CN1CCC(c2noc3ccsc23)CC1)N1CCN(Cc2ccc(Cl)cc2)CC1 (racemic) [compound 832156]
- Ki: 0.315 nM

Structure (SMILES): O=C(NCCc1cccc(F)c1)[C@@H]1C[C@H]1CN1CCC(c2noc3ccsc23)CC1 [compound 832726]
- Ki: 7.05 nM

Structure (SMILES): COc1c(F)ccc2c(C3CCN(CCC4(C(=O)NCCCN5CCCCC5)CC4)CC3)noc12 [compound 833365]
- Ki: 166 nM

Structure (SMILES): Cc1ccc(S(=O)(=O)n2nc(N3CCN(C[C@@H]4C[C@H]4C(=O)N[C@H]4CC[C@H](O)CC4)CC3)c3sccc32)cc1 [compound 831951]
- Ki: 36.7 nM

Structure (SMILES): O=C(NCCC1=CCCCC1)[C@@H]1C[C@H]1CN1CCC(c2noc3ccsc23)CC1 [compound 831215]
- Ki: 5.92 nM

Structure (SMILES): CN1CCC[C@@H]1CCNC(=O)[C@@H]1C[C@H]1CN1CCN(c2csc3cc(C(F)(F)F)ccc23)CC1 [compound 832216]
- Ki: 76.5 nM

Structure (SMILES): CC1CCC(NC(=O)C2CC2CN2C3CCC2CC(c2n[nH]c4ccccc24)C3)CC1 (centres unmarked) [compound 830115]
- Ki: 45.3 nM

Structure (SMILES): CC(C)(C)OC(=O)N1CCC(NC(=O)C2CC2CN2CCC(c3noc4ccsc34)CC2)CC1 (racemic) [compound 832391]
- Ki: 77.9 nM

Structure (SMILES): O=C(NC1CCN(CC2CCCCC2)CC1)[C@@H]1C[C@H]1CN1CCN(c2nn(-c3ccc(OC(F)(F)F)cc3)c3ccsc23)CC1 [A002437084]
- Ki: 7.11 nM

Structure (SMILES): Cn1nc(N2CCN(CCCC(=O)N[C@H]3CC[C@H](C)CC3)CC2)c2sccc21 [A002201941]
- Ki: 119 nM

Structure (SMILES): O=C(NCCc1c[nH]c2ccccc12)[C@@H]1C[C@H]1CN1CCN(c2csc3cc(C(F)(F)F)ccc23)CC1 [compound 831271]
- Ki: 6.57 nM

Structure (SMILES): CN(C)CCN1CCN(C(=O)[C@@H]2C[C@H]2CN2CCN(c3csc4cc(C(F)(F)F)ccc34)CC2)CC1 [compound 832580]
- Ki: 28.8 nM

Structure (SMILES): Cc1ccc2c(c1)c(C1CCN(C[C@@H]3C[C@H]3C(=O)N[C@H]3CC[C@H](C)CC3)CC1)nn2C [compound 834059]
- Ki: 2.76 nM

Structure (SMILES): O=C([C@@H]1C[C@H]1CN1CCC(c2csc3cc(C(F)(F)F)ccc23)CC1)N1CCC[C@@H](Cn2ccnc2)C1 [A002609935, (3S-Imidazol-1-ylmethyl-piperidin-1-yl)-{2R-[4-(6-trifluoromethyl-benzo[b]thiophen-3-yl)-piperidin-1-ylmethyl]-1R-cyclopropyl}-methanone]
- Ki: 0.142 nM

Structure (SMILES): CN1CCC(N(C)C(=O)[C@@H]2C[C@H]2CN2CCN(c3csc4cc(C(F)(F)F)ccc34)CC2)CC1 [compound 832577]
- Ki: 1.85 nM

Structure (SMILES): CC(C)(C)C(=O)O[C@H]1CC[C@H](NC(=O)[C@@H]2C[C@H]2CN2CCC(c3csc4c(C(F)(F)F)cccc34)CC2)CC1 [compound 833151]
- Ki: 11.2 nM

Structure (SMILES): O=C([C@@H]1C[C@H]1CN1CCC(c2noc3ccsc23)CC1)N1CCC(n2ccnc2)CC1 [compound 833164]
- Ki: 52.5 nM

Structure (SMILES): O=C(C1CC1CN1CCC(c2noc3ccsc23)CC1)N1CCN(C2CCCCC2)CC1 (racemic) [compound 829591]
- Ki: 72.4 nM

Structure (SMILES): CN1CCN(CCCNC(=O)[C@@H]2C[C@H]2CN2CCC(c3csc4cc(C(F)(F)F)ccc34)CC2)CC1 [A002437517]
- Ki: 10.5 nM

Structure (SMILES): O=C(NC1CCN(Cc2ncc[nH]2)CC1)C1CC1CN1CCC(c2noc3ccsc23)CC1 (racemic) [compound 832392]
- Ki: 2.29 nM

Structure (SMILES): O=C(C1CC1CN1CCC(c2noc3ccsc23)CC1)N1CCN(CCc2ccncc2)CC1 (racemic) [compound 832000]
- Ki: 79.6 nM

Structure (SMILES): O=C(C1COc2ccccc2O1)N1CCN(C(=O)C2CC2CN2CCC(c3noc4ccsc34)CC2)CC1 (racemic) [compound 832055]
- Ki: 112 nM

Structure (SMILES): CC1(C)COCN1C(=O)[C@@H]1C[C@H]1CN1CCC(c2noc3ccsc23)CC1 [compound 829464]
- Ki: 22.4 nM

Structure (SMILES): O=C(NCCS(=O)(=O)c1cccc2c(Cl)cccc12)C1CC1CN1CCC(c2noc3ccsc23)CC1 (racemic) [compound 831689]
- Ki: 16.4 nM

Structure (SMILES): O=C(NCCc1ccccc1)C1(CCN2CCN(c3csc4cc(C(F)(F)F)ccc34)CC2)CC1 [compound 832519]
- Ki: 97.5 nM

Structure (SMILES): O=C(NCCCn1ccnc1)[C@@H]1C[C@H]1CN1CCN(c2csc3cc(C(F)(F)F)ccc23)CC1 [compound 831269]
- Ki: 4.08 nM

Structure (SMILES): CC1CCC(NC(=O)C2CC2CN2CCN(Cc3ccccc3)CC2)CC1 (racemic) [compound 827202]
- Ki: 177 nM

Structure (SMILES): O=C(NC1CCN(Cc2ccc(Cl)cc2)CC1)[C@@H]1C[C@H]1CN1CCN(c2csc3cc(C(F)(F)F)ccc23)CC1 [compound 832737]
- Ki: 5.42 nM

Structure (SMILES): COc1cccc(CCNC(=O)C2CC2CN2CCC(c3noc4ccsc34)CC2)c1 (racemic) [compound 831804]
- Ki: 9.89 nM

Structure (SMILES): O=C(NCCCn1cnc2ccccc21)[C@@H]1C[C@H]1CN1CCC(c2noc3ccsc23)CC1 [compound 831377]
- Ki: 4.68 nM

Structure (SMILES): COc1cccc2c(C3CCN(C[C@@H]4C[C@H]4C(=O)N4CCC(C(=O)c5ccc(F)cc5)CC4)CC3)noc12 [compound 831810]
- Ki: 124 nM

Structure (SMILES): O=C([C@@H]1C[C@H]1CN1CCC(c2noc3ccsc23)CC1)N1CCN(Cc2ccc(Cl)c(Cl)c2)CC1 [compound 832532]
- Ki: 14.4 nM

Structure (SMILES): O=C(C1CC1CN1CCC(c2noc3ccsc23)CC1)N1CCN(C2CCCC2)CC1 (racemic) [compound 832196]
- Ki: 22.9 nM

Structure (SMILES): O=C(NCCCn1ccnc1)[C@@H]1C[C@H]1CN1CCC(c2noc3c(C(F)(F)F)cccc23)CC1 [compound 832274]
- Ki: 52.4 nM

Structure (SMILES): Cc1ccc(CN2CCN(C(=O)C3CC3CN3CCC(c4noc5ccsc45)CC3)CC2)cc1 (racemic) [compound 832154]
- Ki: 21.9 nM

Structure (SMILES): COc1ccccc1CN1CCC(NC(=O)[C@@H]2C[C@H]2CN2CCC(c3noc4ccsc34)CC2)CC1 [compound 832724]
- Ki: 1.44 nM

Structure (SMILES): COc1ccc(CN2CCC(NC(=O)C3CC3CN3CCC(c4noc5ccsc45)CC3)CC2)cc1 (racemic) [compound 831795]
- Ki: 1.82 nM
